From patent US20240366589A1, “NHE3-BINDING COMPOUNDS AND METHODS FOR INHIBITING PHOSPHATE TRANSPORT” (Ardelyx, Inc., priority 2013, published 2024)

Experiments:
Human NHE3 = biological target: T1, Human NHE3 (Homo sapiens, UniProt P48764); experiment: Cell-based NHE3 activity under prompt conditions (OK cells, BCECF pH recovery), human NHE3; settings: prompt conditions
T1 construct: expressed in transfected cells; host or cells: Opossum kidney (OK) cells (ATCC), electroporation
T1 sequence (P48764 26-834): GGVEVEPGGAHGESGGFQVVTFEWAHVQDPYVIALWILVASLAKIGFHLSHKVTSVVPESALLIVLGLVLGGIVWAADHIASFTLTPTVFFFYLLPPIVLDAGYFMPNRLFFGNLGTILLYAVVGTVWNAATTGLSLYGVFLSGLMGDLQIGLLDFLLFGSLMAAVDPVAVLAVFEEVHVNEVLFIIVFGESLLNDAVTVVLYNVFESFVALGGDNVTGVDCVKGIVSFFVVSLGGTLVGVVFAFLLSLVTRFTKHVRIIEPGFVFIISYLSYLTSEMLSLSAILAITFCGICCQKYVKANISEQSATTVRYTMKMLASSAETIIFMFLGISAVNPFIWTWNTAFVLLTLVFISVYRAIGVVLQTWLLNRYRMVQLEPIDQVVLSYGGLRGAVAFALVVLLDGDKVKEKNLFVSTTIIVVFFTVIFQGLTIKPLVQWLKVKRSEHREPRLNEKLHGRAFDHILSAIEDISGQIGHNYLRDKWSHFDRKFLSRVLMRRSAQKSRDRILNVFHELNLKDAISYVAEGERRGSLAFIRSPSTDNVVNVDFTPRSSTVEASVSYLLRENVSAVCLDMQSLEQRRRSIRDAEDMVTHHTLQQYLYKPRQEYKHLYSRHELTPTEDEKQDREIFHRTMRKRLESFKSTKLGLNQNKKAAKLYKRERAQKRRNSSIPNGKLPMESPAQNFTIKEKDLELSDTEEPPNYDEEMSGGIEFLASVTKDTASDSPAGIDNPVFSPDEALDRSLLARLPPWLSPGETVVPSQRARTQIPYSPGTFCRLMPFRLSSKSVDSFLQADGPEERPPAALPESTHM
In short: (§1)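 OK cells electroporated with rat or human NHE3 were loaded with 5 μM BCECF-AM in NH4Cl-HEPES (pH 7.4) for 30 min at room temperature, then acid-loaded 10 min in Na+-free choline-HEPES.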

Rat NHE3 = biological target: T2, Rat NHE3 (Rattus norvegicus, UniProt P26433); experiment: Cell-based NHE3 activity under prompt conditions (OK cells, BCECF pH recovery), rat NHE3; settings: prompt conditions
T2 construct: expressed in transfected cells; host or cells: Opossum kidney (OK) cells (ATCC), electroporation
T2 sequence (P26433 29-831): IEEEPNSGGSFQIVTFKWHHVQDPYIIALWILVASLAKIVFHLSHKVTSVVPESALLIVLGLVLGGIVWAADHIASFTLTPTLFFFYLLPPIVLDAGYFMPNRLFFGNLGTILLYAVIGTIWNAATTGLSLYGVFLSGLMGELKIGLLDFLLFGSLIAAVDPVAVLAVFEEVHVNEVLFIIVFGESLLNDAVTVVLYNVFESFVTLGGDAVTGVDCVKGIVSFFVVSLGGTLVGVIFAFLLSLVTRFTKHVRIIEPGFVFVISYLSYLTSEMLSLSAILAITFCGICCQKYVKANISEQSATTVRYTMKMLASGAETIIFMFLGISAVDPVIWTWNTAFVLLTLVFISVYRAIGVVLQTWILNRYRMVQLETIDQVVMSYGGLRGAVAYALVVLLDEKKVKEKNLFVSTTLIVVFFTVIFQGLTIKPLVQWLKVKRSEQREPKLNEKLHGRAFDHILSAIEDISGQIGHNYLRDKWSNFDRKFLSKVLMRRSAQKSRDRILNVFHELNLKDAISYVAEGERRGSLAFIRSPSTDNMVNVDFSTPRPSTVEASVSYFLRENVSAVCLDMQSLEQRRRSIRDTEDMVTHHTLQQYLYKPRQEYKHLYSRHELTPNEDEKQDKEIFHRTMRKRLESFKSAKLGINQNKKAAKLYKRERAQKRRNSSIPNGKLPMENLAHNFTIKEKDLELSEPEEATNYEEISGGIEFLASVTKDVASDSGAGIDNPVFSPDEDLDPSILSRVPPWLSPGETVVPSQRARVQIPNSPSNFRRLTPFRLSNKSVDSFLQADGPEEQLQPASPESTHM
In short: as §1

[1] = tested on: phosphorus and calcium levels in the urine of rats; experiment: Urinary excretion of phosphate and calcium in rats (16 h overnight urine); format: in vivo, rat; settings: rats, oral gavage, 16 h post-dose
[2] = tested on: absorption of sodium from the intestinal lumen; experiment: Inhibition of intestinal sodium absorption: urinary sodium (uNa) 16 h after single oral dose in rats; format: in vivo, rat; settings: oral gavage, 16 h post-dose
In short: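 Eight-week-old Sprague-Dawley rats (n=6) given single oral gavage of compound or water vehicle in the late afternoon, then kept in metabolic cages with chow and water ad libitum. Urine collected over 16 h; sodium quantified by ion chromatography and expressed as % of vehicle mean, compared by one-way ANOVA with Dunnett's test.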

[3] = tested on: absorption of sodium from the intestinal lumen; experiment: Fecal form score (FFS) 16 h after oral dose in rats; format: in vivo, rat; settings: oral gavage, 16 h post-dose, scale 1-5
In short: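 Eight-week-old Sprague-Dawley rats (n=6) dosed by oral gavage with compound or water vehicle between 4 and 5 PM, then housed in metabolic cages with food and water ad libitum. At 16 h, fecal form scored 1 (normal pellet) to 5 (liquid streams) by two observers; group mean reported.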

## N=C(N)Nc1nc(-c2ccc(S(=O)(=O)NCCOCCOCCN)cc2)c2cc(Cl)ccc2n1 [compound 8]
Human NHE3
  Prompt Human NHE3 pIC50: 6.40
Rat NHE3
  Prompt Rat NHE3 pIC50: 6.90
[1]; dose 10 mg/kg
  Urine P % of control: 101%
[1]; dose 30 mg/kg
  Urine P % of control: 114%
[2]; dose 10 mg/kg
  Urine Na % of control: 73%
[2]; dose 30 mg/kg
  Urine Na % of control: 31%
[3]; dose 10 mg/kg
  Fecal Form Score average: 1
[3]; dose 30 mg/kg
  Fecal Form Score average: 2

## CN1Cc2c(Cl)cc(Cl)cc2[C@H](c2cccc(S(=O)(=O)NCCOCCOCCNC(=O)CCC(CCC(=O)NCCOCCOCCNS(=O)(=O)c3cccc([C@@H]4CN(C)Cc5c(Cl)cc(Cl)cc54)c3)(CCC(=O)NCCOCCOCCNS(=O)(=O)c3cccc([C@@H]4CN(C)Cc5c(Cl)cc(Cl)cc54)c3)NC(=O)Cc3nnn[nH]3)c2)C1 [compound 156]
Human NHE3
  Prompt Human NHE3 pIC50: 7.20
Rat NHE3
  Prompt Rat NHE3 pIC50: 6.70
[1]; dose 3 mg/kg
  Urine P % of control: 67%
[2]; dose 3 mg/kg
  Urine Na % of control: 13%
[3]; dose 3 mg/kg
  Fecal Form Score average: 3

## CN(C)[C@H]1Cc2ccc(F)cc2[C@@H]1Oc1ccc(S(=O)(=O)NCCOCCOCCNC(=O)NCCCCNC(=O)NCCOCCOCCNS(=O)(=O)c2ccc(O[C@H]3c4cc(F)ccc4C[C@@H]3N(C)C)cc2)cc1 [compound 136]
Human NHE3
  Prompt Human NHE3 pIC50: 7.70
Rat NHE3
  Prompt Rat NHE3 pIC50: <5.00
[1]; dose 10 mg/kg
  Urine P % of control: 93%
[2]; dose 10 mg/kg
  Urine Na % of control: 104%
[3]; dose 10 mg/kg
  Fecal Form Score average: 1

## CN1Cc2c(Cl)cc(Cl)cc2[C@H](c2cccc(S(=O)(=O)NCCOCCOCCOCCNC(=O)NCCN3CCN(c4nc(N5CCN(CCNC(=O)NCCOCCOCCOCCNS(=O)(=O)c6cccc([C@@H]7CN(C)Cc8c(Cl)cc(Cl)cc87)c6)CC5)nc(N5CCN(CCNC(=O)NCCOCCOCCOCCNS(=O)(=O)c6cccc([C@@H]7CN(C)Cc8c(Cl)cc(Cl)cc87)c6)CC5)n4)CC3)c2)C1 [compound 70]
Human NHE3
  Prompt Human NHE3 pIC50: 7.20
Rat NHE3
  Prompt Rat NHE3 pIC50: 6.70
[1]; dose 10 mg/kg
  Urine P % of control: 83%
[2]; dose 10 mg/kg
  Urine Na % of control: 96%
[3]; dose 10 mg/kg
  Fecal Form Score average: 1

## CN1Cc2c(Cl)cc(Cl)cc2[C@H](c2cccc(S(=O)(=O)NCCOCCOCCNC(=O)NCCCC(CCCNC(=O)NCCOCCOCCNS(=O)(=O)c3cccc([C@@H]4CN(C)Cc5c(Cl)cc(Cl)cc54)c3)(CCCNC(=O)NCCOCCOCCNS(=O)(=O)c3cccc([C@@H]4CN(C)Cc5c(Cl)cc(Cl)cc54)c3)NC(=O)NC[C@H](O)[C@@H](O)[C@H](O)[C@H](O)CO)c2)C1 [compound 167]
Human NHE3
  Prompt Human NHE3 pIC50: 8.37
Rat NHE3
  Prompt Rat NHE3 pIC50: 5.80
[1]; dose 3 mg/kg
  Urine P % of control: 99%
[2]; dose 3 mg/kg
  Urine Na % of control: 36%
[3]; dose 3 mg/kg
  Fecal Form Score average: 2

## CC(C)(C(=O)NCCOCCOCCOCCNS(=O)(=O)c1ccc(O[C@H]2c3ccccc3C[C@@H]2N2CCCCC2)cc1)C(=O)NCCOCCOCCOCCNS(=O)(=O)c1ccc(O[C@H]2c3ccccc3C[C@@H]2N2CCCCC2)cc1 [compound 119]
Human NHE3
  Prompt Human NHE3 pIC50: 7.80
Rat NHE3
  Prompt Rat NHE3 pIC50: 8.70
[1]; dose 10 mg/kg
  Urine P % of control: 52%
[2]; dose 10 mg/kg
  Urine Na % of control: 43%
[3]; dose 10 mg/kg
  Fecal Form Score average: 1

## CN1CCN(C(=O)NC(CCC(=O)NCCOCCOCCNS(=O)(=O)c2cccc(C3CN(C)Cc4c(Cl)cc(Cl)cc43)c2)(CCC(=O)NCCOCCOCCNS(=O)(=O)c2cccc([C@@H]3CN(C)Cc4c(Cl)cc(Cl)cc43)c2)CCC(=O)NCCOCCOCCNS(=O)(=O)c2cccc([C@@H]3CN(C)Cc4c(Cl)cc(Cl)cc43)c2)CC1 (stereo in doubt) [compound 153]
Human NHE3
  Prompt Human NHE3 pIC50: 7.50
Rat NHE3
  Prompt Rat NHE3 pIC50: 6.90
[1]; dose 3 mg/kg
  Urine P % of control: 84%
[2]; dose 3 mg/kg
  Urine Na % of control: 28%
[3]; dose 3 mg/kg
  Fecal Form Score average: 3

## CN1Cc2c(Cl)cc(Cl)cc2[C@H](c2cccc(S(=O)(=O)NCCOCCOCCN(C)C(=O)CCC(N)(CCC(=O)N(C)CCOCCOCCNS(=O)(=O)c3cccc([C@@H]4CN(C)Cc5c(Cl)cc(Cl)cc54)c3)CCC(=O)N(C)CCOCCOCCNS(=O)(=O)c3cccc([C@@H]4CN(C)Cc5c(Cl)cc(Cl)cc54)c3)c2)C1 [compound 175]
Human NHE3
  Prompt Human NHE3 pIC50: 7.40
Rat NHE3
  Prompt Rat NHE3 pIC50: 7.80
[1]; dose 3 mg/kg
  Urine P % of control: 48%
[2]; dose 3 mg/kg
  Urine Na % of control: 102%
[3]; dose 3 mg/kg
  Fecal Form Score average: 1

## CN1Cc2c(Cl)cc(Cl)cc2[C@H](c2cccc(S(=O)(=O)NCCOCCOCCNC(=O)CCC(CCC(=O)NCCOCCOCCNS(=O)(=O)c3cccc([C@@H]4CN(C)Cc5c(Cl)cc(Cl)cc54)c3)(CCC(=O)NCCOCCOCCNS(=O)(=O)c3cccc([C@@H]4CN(C)Cc5c(Cl)cc(Cl)cc54)c3)NC(=O)CCCC(=O)O)c2)C1 [compound 137]
Human NHE3
  Prompt Human NHE3 pIC50: 7.30
Rat NHE3
  Prompt Rat NHE3 pIC50: 7.30
[1]; dose 1 mg/kg
  Urine P % of control: 137%
[1]; dose 3 mg/kg
  Urine P % of control: 139%
[2]; dose 1 mg/kg
  Urine Na % of control: 39%
[2]; dose 3 mg/kg
  Urine Na % of control: 28%
[3]; dose 1 mg/kg
  Fecal Form Score average: 1
[3]; dose 3 mg/kg
  Fecal Form Score average: 3

## CN1Cc2c(Cl)cc(Cl)cc2[C@H](c2cccc(S(=O)(=O)NCCOCCOCCOCCNC(=O)CN(CC(=O)NCCOCCOCCOCCNS(=O)(=O)c3cccc([C@@H]4CN(C)Cc5c(Cl)cc(Cl)cc54)c3)CC(=O)NCCOCCOCCOCCNS(=O)(=O)c3cccc([C@@H]4CN(C)Cc5c(Cl)cc(Cl)cc54)c3)c2)C1 [compound 57]
Human NHE3
  Prompt Human NHE3 pIC50: 7.50
Rat NHE3
  Prompt Rat NHE3 pIC50: 7.10
[1]; dose 10 mg/kg
  Urine P % of control: 75%
[2]; dose 10 mg/kg
  Urine Na % of control: 25%
[3]; dose 10 mg/kg
  Fecal Form Score average: 3

## O=C(CCOCCOCCOCCOCCOCCC(=O)NCCOCCOCCOCCNS(=O)(=O)c1ccc(OC2c3ccccc3CC2N2CCCCC2)cc1)NCCOCCOCCOCCNS(=O)(=O)c1ccc(OC2c3ccccc3CC2N2CCCCC2)cc1 (stereo not shown) [compound 53]
Human NHE3
  Prompt Human NHE3 pIC50: 7.40
Rat NHE3
  Prompt Rat NHE3 pIC50: 7.45
[1]; dose 10 mg/kg
  Urine P % of control: 59%
[2]; dose 10 mg/kg
  Urine Na % of control: 100%
[3]; dose 10 mg/kg
  Fecal Form Score average: 1

## CN1Cc2c(Cl)cc(Cl)cc2[C@H](c2cccc(S(=O)(=O)NCCOCCOCCNC(=O)CN(CC(=O)NCCOCCOCCNS(=O)(=O)c3cccc([C@@H]4CN(C)Cc5c(Cl)cc(Cl)cc54)c3)CC(=O)NCCOCCOCCNS(=O)(=O)c3cccc([C@@H]4CN(C)Cc5c(Cl)cc(Cl)cc54)c3)c2)C1 [compound 74]
Human NHE3
  Prompt Human NHE3 pIC50: 6.80
Rat NHE3
  Prompt Rat NHE3 pIC50: 6.30
[1]; dose 10 mg/kg
  Urine P % of control: 44%
[2]; dose 10 mg/kg
  Urine Na % of control: 30%
[3]; dose 10 mg/kg
  Fecal Form Score average: 3

## CN1Cc2c(Cl)cc(Cl)cc2[C@H](c2cccc(S(=O)(=O)NCCOCCOCCNCCCC(CCC(=O)NCCOCCOCCNS(=O)(=O)c3cccc([C@@H]4CN(C)Cc5c(Cl)cc(Cl)cc54)c3)(CCC(=O)NCCOCCOCCNS(=O)(=O)c3cccc([C@@H]4CN(C)Cc5c(Cl)cc(Cl)cc54)c3)NC(=O)N3CCN(CCOCCO)CC3)c2)C1 [compound 170]
Human NHE3
  Prompt Human NHE3 pIC50: 7.20
Rat NHE3; read-out: Prompt Rat NHE3 pIC50 (converted)
  IC50: 79.4 nM
[1]; dose 3 mg/kg
  Urine P % of control: 34%
[2]; dose 3 mg/kg
  Urine Na % of control: 31%
[3]; dose 3 mg/kg
  Fecal Form Score average: 2

## CN1Cc2c(Cl)cc(Cl)cc2[C@H](c2cccc(S(=O)(=O)NCCOCCOCCNC(=O)CCC(CCCNC(=O)NCCOCCOCCNS(=O)(=O)c3cccc([C@@H]4CN(C)Cc5c(Cl)cc(Cl)cc54)c3)(CCC(=O)NCCOCCOCCNS(=O)(=O)c3cccc([C@@H]4CN(C)Cc5c(Cl)cc(Cl)cc54)c3)NC(=O)NCP(=O)(O)O)c2)C1 [compound 162]
Human NHE3
  Prompt Human NHE3 pIC50: 6.60
Rat NHE3
  Prompt Rat NHE3 pIC50: 7.30
[1]; dose 2 mg/kg
  Urine P % of control: 50%
[2]; dose 2 mg/kg
  Urine Na % of control: 130%
[3]; dose 2 mg/kg
  Fecal Form Score average: 2
